# Reference: US9833466B2, “Treatment of leukemia with histone deacetylase inhibitors” (Acetylon Pharmaceuticals Inc., priority 2014, dated 2017)
# Entries after “also recorded” stand apart in the source; their conditions may differ.
# Assays:
# [1] = system: HL-60; experiment: Surface CD11b by FACS in HL-60; assay type: cell-based; conditions: combination with azacitidine vs single agent, 96 hours
# Experimental: (§1) Briefly, the AML cell lines HL-60 (FIGS. 4A and 4D), Kasumi-1 (FIGS. 4B and 4E) and NB4 (FIGS. 4C and 4F) were treated with the indicated concentrations of compounds. In FIGS. 4A-C, surface levels of myeloid differentiation marker CD11b were determined by FACS at 72 hours post-treatment. […] In FIGS. 4D-F, apoptosis was assessed by flow cytometry by measuring Annexin V binding and cellular permeability to propidium iodide at 96 hours post-treatment. The relative fraction of cells that were alive, in early apoptosis, in late apoptosis, or dead was then determined.
# (§2) FIGS. 5A-F show the combination of HDAC inhibitors and azacitidine in the HL-60 cell line. Briefly, cells were treated with DMSO, Compound B, Compound A, or Compound E as a single agent or in combination with azacitidine for 96 hours. Surface levels of CD11b (FIGS. 5A, 5C, 5E) and apoptosis (FIGS. 5B, 5D, 5F) was assessed by flow cytometry, as in FIG. 4.
# [2] = system: HDAC1, HDAC2, HDAC3 and HDAC6; experiment: HDAC selectivity of the inhibitor panel; assay type: biochemical; conditions: HDAC isoform(s) the inhibitor is selective for
# Experimental: Compounds for testing are diluted in DMSO to 50 fold the final concentration and a ten point three fold dilution series is made. The compounds are diluted in assay buffer (50 mM HEPES, pH 7.4, 100 mM Kill, 0.001% Tween-20, 0.05% BASE, 20 μM TEC) to 6 fold their final concentration. The HDAC enzymes (purchased from BPS Biosciences) are diluted to 1.5 fold their final concentration in assay buffer. The dipeptide substrate and trypsin at 0.05 μM final concentration are diluted in assay buffer at 6 fold their final concentration. The final enzyme concentrations to use in these assays are 3.3 ng/ml (HDAC1), 0.2 ng/ml (HDAC2), 0.08 ng/ml (HDAC3) and 2 ng/ml (HDAC6). The final substrate concentrations to use are 16 μM (HDAC1), 10 μM (HDAC2), 17 μM (HDAC3) and 14 μM (HDAC6). Five μ1 of compound and 20 μl of enzyme are added to wells of a black, opaque 384 well plate in duplicate. Enzyme and compound are incubated together at room temperature for 10 min. Five μ1 of substrate is added to each well, the plate is shaken for 60 seconds and placed into a Victor 2 microliter plate reader. The development of fluorescence is monitored for 60 min. and the linear rate of the reaction is calculated. The IC50 is determined using Graph Pad Prism by a four parameter curve fit.
# The following HDAC inhibitors were used to evaluate the relationship between HDAC selectivity and the viability of AML cell lines upon exposure to the HDAC inhibitor: […]
# [3] = system: MV4-11; experiment: Surface CD11b by FACS in MV4-11; assay type: cell-based; conditions: 72 h
# Experimental: (§3) The distribution of cells among G0/G1 phase, G2/M phase, S phase and subG1 phase was determined. […] The relative fraction of cells that were live, in early apoptosis, in late apoptosis, or dead was then determined.
# (§4) MV4-11 cells were treated with Compound E or with Compound A or with Compound B as single agent or in combination with azacitidine at indicated doses. FIGS. 12A, 12C, and 12E show surface levels of CD11b determined by FACS at 72 h post-treatment. FIGS. 12B, 12D, and 12F show assessment of apoptosis by FACS (as in, e.g., FIG. 9C) at 96 h post-treatment.
# (§5) FIG. 17. […] (A) Indicated AML cell lines were exposed to increasing concentrations of Compound J to confirm their sensitivity to HDAC1/2 inhibition. (B-D) MV4-11 cells were treated with indicated concentrations of compounds. (B) Surface levels of myeloid differentiation marker CD11b were determined by FACS at 72 h post-treatment. […] (C) Cell cycle was assessed by flow cytometry after incorporation of EdU and staining with Far Red at 72 h post-treatment. The distribution of cells among G0/G1 phase, G2/M phase, S phase and subG1 phase was determined. […] (D) Apoptosis was assessed by flow cytometry via measuring Annexin V binding and cellular permeability to propidium iodide at 96 h post-treatment. The relative fraction of cells that were live, in early apoptosis, in late apoptosis or dead was then determined.
# [4] = system: Kasumi-1; experiment: Surface CD11b by FACS in Kasumi-1; assay type: cell-based; conditions: combination with azacitidine vs single agent, 72 hours
# Experimental: as §1
# (§6) Briefly, cells were treated with DMSO, Compound B, Compound A, or Compound E as a single agent or in combination with azacitidine at the indicated concentrations. Surface levels of CD11b were determined 72 hours post-treatment (FIGS. 6A, 6C, 6E), and apoptosis was assessed 96 hours post-treatment (FIGS. 6B, 6D, 6F).
# [5] = system: HL-60, Kasumi-1 and NB4; experiment: Apoptosis by Annexin V / propidium iodide flow cytometry in three AML cell lines; assay type: cell-based; conditions: single agent; 96 hours; HL-60, Kasumi-1, NB4
# Experimental: as §1
# (§7) FIGS. 10A-F show the treatment of the following AML cell lines: Kasumi-1 (FIGS. 10A and 10B), HL-60 (FIGS. 10C and 10D) and NB4 (FIGS. 10E and 10F), with indicated doses of compounds. FIGS. 10A, 10C, and 10E show surface levels of myeloid differentiation marker CD11b determined by FACS at 72 h post-treatment. […] FIGS. 10B, 10D, and 10F show the assessment of apoptosis by FACS (see, e.g., FIG. 9C).
# [6] = system: HL-60; experiment: Apoptosis by Annexin V / propidium iodide flow cytometry in HL-60; assay type: cell-based; conditions: 96 hours; for apoptotic cells: combination with azacitidine vs single agent
# Experimental: as §1, §2
# [7] = system: HL-60, Kasumi-1 and NB4; experiment: Surface CD11b by FACS in three AML cell lines; assay type: cell-based; conditions: single agent; 72 hours; all three cell lines
# Experimental: as §1, §7
# [8] = system: MV4-11; experiment: Apoptosis by Annexin V / propidium iodide flow cytometry in MV4-11; assay type: cell-based; conditions: 96 h; for induction of apoptosis: combination with azacitidine; for apoptosis relative to control cells: single agent
# Experimental: as §3, §4, §5
# [9] = system: NB4; experiment: Apoptosis by Annexin V / propidium iodide flow cytometry in NB4; assay type: cell-based; conditions: 96 hours; for apoptotic cells: combination with azacitidine vs single agent
# Experimental: as §1
# FIGS. 7A-F show the combination of HDAC inhibitors and azacitidine in the NB4 cell line. Briefly, cells were treated with DMSO, Compound B, Compound A, or Compound E as single agent or in combination with azacitidine at the indicated concentrations. Surface levels of CD11b were determined 72 hours post-treatment (FIGS. 7A, 7C, 7E), and apoptosis was assessed 96 hours post-treatment (FIGS. 7B, 7D, 7F).
# [10] = system: Kasumi-1; experiment: Apoptosis by Annexin V / propidium iodide flow cytometry in Kasumi-1; assay type: cell-based; conditions: 96 hours; for apoptotic cells: combination with azacitidine vs single agent
# Experimental: as §1, §6
SMILES,CD11b positive cells [1],Selectivity [2],percentage of CD11b positive cells ([3]; combination with azacitidine),percentage of CD11b positive cells ([3]; single agent),CD11b positive cells [4],apoptosis relative to control cells [5],apoptotic cells [6],percentage of CD11b positive cells [7],induction of apoptosis [8],apoptosis relative to control cells [8],apoptotic cells [9],apoptotic cells [10],apoptosis ([6]; single agent),apoptosis ([9]; single agent),apoptosis ([10]; single agent)
"O=C(CCCCCCNC(=O)c1cnc(N(c2ccccc2)c2ccccc2)nc1)NO [Compound A, 2-(diphenylamino)-N-(7-(hydroxyamino)-7-oxoheptyl)pyrimidine-5-carboxamide]",synergistic increases of CD11b positive cells,HDAC6 (1/2/3),further increase of percentage of CD11b positive cells,increased the percentage of CD11b positive cells,synergistic increases of CD11b positive cells,increase in apoptosis relative to control cells; also recorded: increased apoptosis relative to control cells,synergistic increases,increased the percentage of CD11b positive cells,enhanced induction of apoptosis greater than either single agent,increase in apoptosis relative to control cells,synergistic increases of apoptotic cells,synergistic increases,–,–,–
"O=C(CCCCCCNC(=O)c1cnc(N(c2ccccc2)c2ccccc2Cl)nc1)NO [Compound B, 2-((2-chlorophenyl)(phenyl)amino)-N-(7-(hydroxyamino)-7-oxoheptyl)pyrimidine-5-carboxamide]",synergistic increases of CD11b positive cells,HDAC6 (1/2/3),further increase of percentage of CD11b positive cells,–,synergistic increases of CD11b positive cells,increase in apoptosis relative to control cells,synergistic increases,increased the percentage of CD11b positive cells,enhanced induction of apoptosis greater than either single agent,–,synergistic increases of apoptotic cells,synergistic increases,–,–,–
"Nc1ccc(-c2cccs2)cc1NC(=O)c1ccc2c(c1)cc(C1CC1)n2CCN1CCOCC1 [Compound E, N-(2-amino-5-(thiophen-2-yl)phenyl)-2-cyclopropyl-1-(2-morpholinoethyl)-1H-indole-5-carboxamide]",synergistic increases of CD11b positive cells,selective for HDAC1/2,further increase of percentage of CD11b positive cells,increased the percentage of CD11b positive cells,synergistic increases of CD11b positive cells,increased apoptosis relative to control cells,synergistic increases,increased the percentage of CD11b positive cells,enhanced induction of apoptosis greater than either single agent,increase in apoptosis relative to control cells,synergistic increases of apoptotic cells,synergistic increases,induced apoptosis,minimal effects,induced apoptosis
